Test results: PMC6435570, “Zafirlukast Is a Dual Modulator of Human Soluble Epoxide Hydrolase and Peroxisome Proliferator-Activated Receptor γ” (Frontiers in Pharmacology, 2019)

Tests used:
[1] = target: T1, human PPARα ligand binding domain (Homo sapiens, UniProt Q07869); test: PPAR reporter gene assay (Gal4 hybrid, PPARα); format: cell-based; conditions: HEK-293T, reference GW7647 1 μM, tested up to 10 μM
T1 construct: expressed in transfected cells; host or cells: HEK-293T
T1 sequence (Q07869 239-466 limits assumed): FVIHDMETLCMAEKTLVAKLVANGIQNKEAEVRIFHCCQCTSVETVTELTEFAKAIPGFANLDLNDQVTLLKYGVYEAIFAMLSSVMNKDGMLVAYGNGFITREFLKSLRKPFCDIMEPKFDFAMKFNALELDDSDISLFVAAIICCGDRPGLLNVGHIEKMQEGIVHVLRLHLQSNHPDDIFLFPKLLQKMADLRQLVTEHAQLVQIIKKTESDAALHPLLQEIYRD
Protocol: (§3) HEK-293T cells were seeded in 96-well plates (2.5 × 10^4 cells/well) and were allowed to adhere overnight. Before transfection, medium was changed to Opti-MEM without supplements. Transient plasmid transfection was carried out using Lipofectamine LTX reagent (Invitrogen, Carlsbad, CA, United States) according to the manufacturer’s protocol with pFR-Luc (Stratagene, La Jolla, CA, United States), pRL-SV40 (Promega, Fitchburg, MA, United States) and pFA-CMV-PPAR-LBD ([Rau et al., 2006]). 5 h after transfection, medium was changed to Opti-MEM supplemented with penicillin (100 U/mL) and streptomycin (100 μg/mL), now additionally containing 0.1% DMSO and the respective test compound or 0.1% DMSO alone as untreated control. Each concentration was tested in triplicates and each experiment was repeated independently at least four times. Following overnight (12–16 h) incubation with the test compounds, cells were assayed for luciferase activity using the Dual-Glo^TM Luciferase Assay System (Promega, Fitchburg, MA, United States) according to the manufacturer’s protocol. Luminescence was measured with an Infinite M200 luminometer (Tecan Group Ltd., Männedorf, Switzerland). Normalization of transfection efficiency and cell growth was done by division of firefly luciferase data by renilla luciferase data and multiplying the value by 1000 resulting in relative light units (RLU). Fold activation was obtained by dividing the mean RLU of a test compound at a respective concentration by the mean RLU of untreated control. Relative activation was obtained by dividing the fold activation of a test compound at a respective concentration by the fold activation of the respective PPARα, γ or δ full agonist GW-7647, pioglitazone or L165,041 at 1 μM. EC50 and standard deviation were calculated with the mean relative activation values of at least four independent experiments by SigmaPlot 10.0 (Systat Software GmbH, Erkrath, Germany) using a four parameter logistic regression. […]

[2] = target: T2, human PPARδ ligand binding domain (Homo sapiens, UniProt Q03181); test: PPAR reporter gene assay (Gal4 hybrid, PPARδ); format: cell-based; conditions: HEK-293T, reference L165,041 1 μM, tested up to 10 μM
T2 construct: expressed in transfected cells; host or cells: HEK-293T
T2 sequence (Q03181 211-439 limits assumed): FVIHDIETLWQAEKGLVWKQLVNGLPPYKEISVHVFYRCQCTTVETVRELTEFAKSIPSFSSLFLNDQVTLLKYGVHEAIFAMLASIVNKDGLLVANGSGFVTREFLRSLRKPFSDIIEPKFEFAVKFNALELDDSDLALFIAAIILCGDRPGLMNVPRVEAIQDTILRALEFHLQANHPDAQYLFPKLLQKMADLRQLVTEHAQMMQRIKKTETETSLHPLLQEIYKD
Protocol: as §3

recombinant human sEH = target: T3, recombinant human sEH (Homo sapiens, UniProt P34913); test: Recombinant sEH activity (PHOME fluorescence assay); format: biochemical; conditions: PHOME 50 μM, 30 min preincubation at RT, read-out: sEH rec. IC50
T3 sequence (P34913 1-555): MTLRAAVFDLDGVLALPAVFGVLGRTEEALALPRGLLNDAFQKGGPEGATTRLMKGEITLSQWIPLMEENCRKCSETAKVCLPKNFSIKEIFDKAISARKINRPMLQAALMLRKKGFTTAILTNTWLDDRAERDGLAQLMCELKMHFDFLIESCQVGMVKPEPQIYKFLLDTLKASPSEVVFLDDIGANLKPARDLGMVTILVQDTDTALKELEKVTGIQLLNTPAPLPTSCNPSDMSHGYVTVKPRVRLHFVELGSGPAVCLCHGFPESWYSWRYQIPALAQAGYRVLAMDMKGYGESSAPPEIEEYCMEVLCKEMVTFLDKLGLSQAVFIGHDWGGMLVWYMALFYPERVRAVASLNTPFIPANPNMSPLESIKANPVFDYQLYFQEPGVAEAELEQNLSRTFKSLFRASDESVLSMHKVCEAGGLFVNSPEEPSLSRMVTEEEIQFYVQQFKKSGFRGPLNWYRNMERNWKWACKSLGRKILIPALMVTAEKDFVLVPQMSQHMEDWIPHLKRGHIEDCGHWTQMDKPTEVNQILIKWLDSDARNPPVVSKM
Protocol: For determination of IC50 values of recombinant human sEH a 96-well fluorescence-based assay system was used as described before ([Blöcher et al., 2016a]). In brief, non-fluorescent PHOME (3 phenylcyano-(6-methoxy-2-naphthalenyl)methyl ester 2-oxiraneacetic acid, Cayman Chemicals, Ann Arbor, MI, United States) was used as substrate, which is hydrolyzed by sEH to the fluorescent 6-methoxynaphthaldehyde ([Rau et al., 2006]). The formation of the fluorescent product was measured (λem = 330 nm, λex = 465 nm) by an Infinite F200 Pro plate reader (Tecan Group Ltd., Männedorf, Switzerland). For that purpose, 2 μg recombinant human sEH in 100 μl bis-Tris buffer (pH 7, 0.1 mg/mL BSA, 0.01% Triton-X 100) was applied per well. This protein solution was then incubated with different concentrations of the test compounds for 30 min at RT. After this, 10 μL of the substrate were added (final concentration 50 μM). The formation of 6-methoxynaphthaldehyde was monitored for 30 min. All concentrations were tested in triplicate wells.

sEH (HEP-G2) = target: T4, sEH (HEP-G2) (Homo sapiens, UniProt P34913); test: sEH activity in HEP-G2 cell lysates (14(15)-EET-d11 to DHET-d11, LC-MS/MS); format: biochemical; conditions: HEP-G2 cell homogenate, (±)14(15)-EET-d11 substrate, DHET formation by LC-MS/MS
T4 construct: 1 μg of total cell homogenate diluted in 100 μl of PBS; endogenous in cells; host or cells: HEP-G2
T4 sequence (P34913 1-555): T3 sequence (P34913 1-555)
Protocol: Quantification of cellular sEH metabolic activity was performed as described by [Zha et al. (2014)]. For this, HEP-G2 cells were harvested, washed twice with PBS and sonicated in PBS for disruption of cell integrity. Then, 1 μg of total cell homogenate diluted in 100 μl of PBS containing 0.1 mg/ml BSA was incubated with the compounds or vehicle for 15 min at 37°C. After this, 25 ng (±)14(15)-EET-d11 (Cayman Chemical, Ann Arbor, MI, United States) were added per sample and the incubation was continued for additional 10 min at 37°C. A blank was performed using PBS (containing 0,1 mg/mL BSA). The reactions were stopped by adding 100 μL of ice cold methanol. After centrifugation (2000 rpm, 4°C, 5 min), supernatants were analyzed by LC-MS/MS and the amounts of (±)14(15)-EET-d11 and the corresponding (±)14(15)-DHET-d11 were determined.
14(15)-EET-d11 and 14(15)-DHET-d11 content of the extracted samples were analyzed employing liquid chromatography tandem mass spectroscopy (LC-MS/MS). The LC/MS-MS system comprised an API 5500 QTrap (Sciex, Darmstadt, Germany), equipped with a Turbo-V-source operating in negative ESI mode, an Agilent 1200 binary HPLC pump and degasser (Agilent, Waldbronn, Germany) and an HTC Pal autosampler (Chromtech, Idstein, Germany) fitted with a 25 μL LEAP syringe (Axel Semrau GmbH, Sprockhövel, Germany). High purity nitrogen for the mass spectrometer was produced by a NGM 22-LC/MS nitrogen generator (cmc Instruments, Eschborn, Germany). All substances were obtained from Cayman Chemical, Ann Arbor, MI, United States. Stock solutions with 2,500 ng/mL of both analytes were prepared in methanol. Working standards were obtained by further dilution with a concentration range of 0.1–250 ng/mL for 14(15)-EET-d11 and 14(15)-DHET-d11. Sample extraction was performed with liquid–liquid-extraction. Therefore, 150 μL of matrix homogenates were gently mixed with 20 μL of internal standard [14(15)-EET and 14(15)-DHET all with a concentration of 100 ng/ml in methanol], and were extracted twice with 600 μL of ethyl acetate. Samples for standard curve and quality control were prepared similarly, instead of 150 μL of matrix homogenates, 150 μL PBS were added. Further 20 μL methanol, 20 μL working standard and 20 μL internal standard were added. The organic phase was removed at a temperature of 45°C under a gentle stream of nitrogen. The residues were reconstituted with 50 μL of methanol/water/(50:50, v/v), centrifuged for 2 min at 10,000 g and then transferred to glass vials (Macherey-Nagel, Düren, Germany) prior to injection into the LC-MS/MS system. For the chromatographic separation a Gemini NX C18 column and pre-column were used (150 mm × 2 mm i.d., 5 μm particle size and 110 Å pore size from Phenomenex, Aschaffenburg, Germany). A linear gradient was employed at a flow rate of 0.5 mL/min mobile phase with a total run time of 17.5 min. Mobile phase was A water/ammonia (100:0.05, v/v) and B acetonitrile/ammonia (100:0.05, v/v). The gradient started from 85% A to 10% within 12 min. This was held for 1 min at 10% A. Within 0.5 min the mobile phase shifted back to 85% A and was held for 3.5 min to equilibrate the column for the next sample. The injection volume of samples was 20 μL. Quantification was performed with Analyst Software V 1.5.1 (Sciex, Darmstadt, Germany) employing the internal standard method (isotope- dilution mass spectrometry). Ratios of analyte peak area and internal standard area (y-axis) were plotted against concentration (x-axis) and calibration curves were calculated by least square regression with 1/concentration^2 weighting.

CysLT1R = conditions: Table 2 comparison column; no method, no reference given; cited from earlier work
3T3-L1 cells = test: 3T3-L1 adipocyte differentiation, Oil Red O lipid accumulation; format: cell-based, murine; conditions: differentiation cocktail plus zafirlukast or montelukast 1, 5, 10 μM or rosiglitazone 2 μM; 14 days
Protocol: (§1) 3T3-L1 cells were differentiated into adipocytes for 14 days according to the protocol of [Zebisch et al. (2012)]. For this, cells were seeded in 6-well plates ([…]) and differentiation was induced after 48 h by addition of a differentiation cocktail containing 1 μg/mL insulin, 0.25 μM dexamethasone and 0.5 mM isobutylmethylxanthine (IBMX) in DMEM supplemented with 10% FCS and 1% PS. […] After 2 days, medium was replaced by DMEM supplemented with 10% FCS, 1% PS and 1 μg/mL insulin for 2 more days. Afterwards, cells were kept for lipid droplet accumulation in DMEM containing 10% FCS and 1% PS until day 15. Media were replaced every other day.
Differentiated 3T3-L1 cells were washed with PBS and subsequently fixed for 60 min with formaldehyde (4% in PBS). Afterwards, cells were thoroughly rinsed with 60% isopropanol and incubated with Oil Red O solution (0.3% in 60% isopropanol) for 120 min. This was followed by the removal of the staining solution and thorough rinsing of the cell layer with ultrapure water. Finally, the plates were dried and pictures of the stained cell layers were taken.
For quantification of the accumulated dye, 3T3-L1 cells were seeded in 24-well plates (0.55 × 10^5/well) instead of 6-wells and the differentiation was carried out as described in the section ‘Adipocyte differentiation’. After 14 days of differentiation, cells were fixed and stained as described above. […] 100 μl of dye extract were transferred to a 96-well plate and absorbance was measured (λabs = 510 nm) by an Infinite F200 plate reader (Tecan Group Ltd., Männedorf, Switzerland). […]
As master regulator of adipocyte differentiation in men and mice, PPARγ plays a crucial role in the cell’s commitment to the adipocyte lineage by controlling important functions such as intracellular biosynthesis, transport and accumulation of lipids. […] Upon differentiation, different parameters such as lipid accumulation and PPARγ target gene expression can be assessed to investigate the PPARγ activating potential of the compounds of interest. […]

[3] = tested on: PPARγ, FABP-4 and CD36 protein in 3T3-L1 adipocytes; test: Protein expression in differentiated 3T3-L1 adipocytes (Western Blot); format: cell-based, murine; conditions: rosiglitazone 2 μM
Protocol: as §1
(§2) Total 3T3-L1 or HEP-G2 cell lysates were prepared in lysis buffer (20 mM Tris-HCl, pH 7.4, 150 mM NaCl, 2 mM EDTA, 1% Triton X-100, 0.5% NP-40) supplemented with protease and phosphatase inhibitors (PhosSTOP^TM + cOmplete^TM Mini, Roche Diagnostics GmbH, Mannheim, Germany). Protein concentrations were quantified using the Pierce^TM BCA Protein Assay Kit (Thermo Scientific, Waltham, MA, United States). Total protein (30 μg/lane) was separated by SDS-polyacrylamide gel electrophoresis and transferred to nitrocellulose membranes (GE Healthcare Life Sciences, Little Chalfont, United Kingdom). Membranes were blocked with Odyssey blocking reagent (LI-COR Biosciences, Bad Homburg, Germany) for 1 h at room temperature. Ensuing, membranes were incubated with antibodies against CD36 (EPR6573, Abcam, Cambridge, United Kingdom), PPARγ (E-8, Santa Cruz Biotechnology, Heidelberg, Germany), FABP-4 (C-15, Santa Cruz Biotechnology, Heidelberg, Germany) or PPARγ Ser273 (Bioss Antibodies Inc., Woburn, MA, United States) overnight at 4°C. Afterwards, membranes were washed and incubated with fluorescence conjugated secondary antibodies (IRDye, LI-COR Biosciences, Bad Homburg, Germany). Protein antibody complexes were visualized on the Odyssey Infrared Imaging System (LI-COR Biosciences, Bad Homburg, Germany). β-actin (I-19, goat, polyclonal, Santa Cruz Biotechnology, Heidelberg, Germany) was used as loading control. The density of the immune reactive bands was analyzed using the Image Studio 5.2 software (LI-COR Biosciences, Bad Homburg, Germany).
As master regulator of adipocyte differentiation in men and mice, PPARγ plays a crucial role in the cell’s commitment to the adipocyte lineage by controlling important functions such as intracellular biosynthesis, transport and accumulation of lipids. Murine 3T3-L1 fibroblasts are a well characterized in vitro tool to study PPARγ induced adipocyte differentiation. These cells can be differentiated from fibroblasts into adipocytes by an activation cocktail (0.5 mM IBMX, 1 μg/mL insulin, 0.25 μM dexamethasone) together with the potential PPARγ agonist. Upon differentiation, different parameters such as lipid accumulation and PPARγ target gene expression can be assessed to investigate the PPARγ activating potential of the compounds of interest. […] Rosiglitazone (2 μM) was used as positive control. This was followed by insulin (1 μg/mL) treatment for another 48 h. After this, cells were kept in growth medium for a week to complete the differentiation process and allow intracellular lipid accumulation. Subsequently, the cells were stained with Oil Red O solution to investigate the extent of cytoplasmic lipid droplet accumulation as a measure for cell differentiation.
In addition to mRNA expression, the protein expression levels of the two PPARγ target genes FABP-4 and CD36 in differentiated 3T3-L1 cells after 14 days were investigated. For this, total protein lysates were separated by gel electrophoresis followed by Western Blotting (Figure 3E,F and Supplementary Figures S2A,B).

[4] = tested on: PPARγ2 phosphorylation at serine 273; test: TNFα triggered PPARγ Ser273 phosphorylation in 3T3-L1 adipocytes (Western Blot); format: cell-based, murine; conditions: zafirlukast 1 or 10 μM or rosiglitazone 2 μM for 45 min, then TNFα 50 ng/mL 30 min
Protocol: as §2, with “Ensuing, membranes were incubated with antibodies against CD36 (EPR6573, Abcam, Cambridge, United Kingdom), PPARγ (E-8, Santa Cruz Biotechnology, Heidelberg, Germany), FABP-4 (C-15, Santa Cruz Biotechnology, Heidelberg, Germany) or PPARγ Ser273 (Bioss Antibodies Inc., Woburn, MA, United States) overnight at 4°C.” left out, “Protein antibody complexes were visualized on the Odyssey Infrared Imaging System (LI-COR Biosciences, Bad Homburg, Germany). β-actin (I-19, goat, polyclonal, Santa Cruz Biotechnology, Heidelberg, Germany) was used as loading control.” left out
We induced this post-translational modification by short-term treatment of the differentiated cells with the cytokine TNFα, generating a pro-inflammatory milieu. […] For this, we used an assay system in which the recruitment of the fluorescence-tagged PPARγ coactivator CBP to the PPARγ-LBD was assessed by time-resolved FRET technique in presence and absence of rosiglitazone.

Row | PPARα EC50 [1] | PPARδ EC50 [2] | IC50 (recombinant human sEH) | IC50 (sEH (HEP-G2)) | SMILES | IC50 (CysLT1R) | Lipid accumulation (Oil Red O staining) (3T3-L1 cells) | PPARγ isoforms γ1 and γ2 protein expression ([3]; 3T3-L1 differentiated with cocktail plus compound) | Protein expression of PPARγ target genes FABP-4 and CD36 ([3]; after 14 days) | TNFα induced phosphorylation of PPARγ2 at serine 273 [4]
1 | i.a. @ 10 μM | i.a. @ 10 μM | 8.86 ± 0.19 µM | 14.1 µM | O=C(Nc1cccc2c(=O)cc(-c3nnn[nH]3)oc12)c1ccc(OCCCCc2ccccc2)cc1 [Pranlukast, pranlukast] | 0.004 µM |  |  |  | 
2 |  |  |  |  | CN(CCOc1ccc(CC2SC(=O)NC2=O)cc1)c1ccccn1 (stereo not drawn) [rosiglitazone] |  | strong accumulation of lipid droplets | upregulated the protein levels | upregulated the expression of all target genes investigated with high potency | inhibited this phosphorylation, although this effect was not significant
